# From patent US12403168B1, “Method for producing a plant-based extract composition having the effect of enhancing nutrition and immunity” (priority 2024, dated 2025)
# Key:
# Assay type in all cases: in vivo
# [1] = test system: male (Swiss albino) mice; assay: Relative weight of organs: liver, spleen, and thymus; settings: CY (+) mice, 10th day after cyclophosphamide 150 mg/kg i.p.; composition 200 100 mg/kg/day, levamisole 25 mg/kg oral
# Description: (§1) Test subjects: the experiment was performed on healthy adult male (Swiss albino) mice, 5-6 weeks old, weighing 25±2 grams. They were nurtured to stabilize for 1 week before conducting the experiment at room temperature (27° C.-28° C.). They were fed with synthetic pellets for mice, and the drinking water was tap water.
# (§2) Test sample: the composition 200 which is obtained from the example 1, and the control sample used distilled water.
# (§3) Male (Swiss albino) mice were immunodeficient by intraperitoneally administering a single dose of cyclophosphamide (150 mg/kg body weight) on the first day and then orally administering the test samples continuously for 5 days.
# (§4) The experiment for immune-enhancing of the composition 200 by arrangement total of 60 male mice was used for experimental (23-25 g) divided into six treatments listed in Table 5 below.
# The relative weights of the organs were calculated using the following formula:
# (§5) [formula] • wherein Pcq is the weight of the organ; Pct is the body weight of the mouse at the time of survey. 3) Leukocyte Count and Percentage of Leukocyte Types; • Collected tail vein blood from mice on the 5th day after CY injection. […] On the 14th day, sensitization was induced by tail vein injection with ovalbumin at a dose of 0.5 mg/kg mouse body weight. […] Measure the volume of the mouse paw at 4 hours (V1) and 24 hours (V2) after the second ovalbumin injection. The left paw that was not injected was used as the reference (Vo). Calculate the percentage of mouse paw edema using the formula: […]
# [2] = test system: male (Swiss albino) mice; assay: Leukocyte count and percentage of leukocyte types; settings: CY (+) mice, 5th day after CY injection 150 mg/kg i.p.; composition 200 100 mg/kg/day, levamisole 25 mg/kg oral
# Description: as §1, §2, §3, §4, §5
# [3] = test system: male (Swiss albino) mice; assay: Cellular immune response (delayed hypersensitivity), ovalbumin mouse paw edema; settings: CY (+) mice, cyclophosphamide 150 mg/kg i.p., composition 200 100 mg/kg/day, levamisole 25 mg/kg oral
# Description: as §1, §2, §3, §4
# as §5, with “(Vo).” for “(Vo). Calculate the percentage of mouse paw edema using the formula:”
structure (smiles),measurement,setting,value
c1ccc([C@H]2CN3CCSC3=N2)cc1 [levamisole],relative weight of liver,[1],5.074 ± 0.189 g %
same,relative weight of spleen,[1],0.343 ± 0.031 g %
same,relative weight of thymus,[1],0.073 ± 0.013 g %
same,% Lymphocyte,[2],59.56 ± 4.42%
same,% Monocyte,[2],14.06 ± 3.64%
same,% Neutrophil,[2],10.81 ± 1.18%
same,"% V4h, percentage of the mouse paw edema after 4 hours",[3]; 4 hours after second ovalbumin injection,81.27 ± 7.52%
same,"% V24 h, percentage of the mouse paw edema after 24 hours",[3]; 24 hours after second ovalbumin injection,38.28 ± 7.12%
